Laboratory results reported in patent publication US20040248766A1, “Selective inhibition of intracellular amyloid-beta neurotoxicity in human neurons” (priority 2001, published 2004).
Several values for one entry are separate records, joined by “and”; a condition that tells them apart may be missing. Equal values may be shown once. Entries after “also recorded” stand apart in the source; their conditions may differ.

Legend:
primary human neurons = test: Microinjection of Aβ peptides into the cytosol of primary human neurons, cell death by TUNEL; type: cell-based; details: for number of molecules toxic (as few as / as little as): microinjected neurons
Experimental: (§1) Cell cultures. Primary cultures of human neurons and astrocytes were prepared as described in LeBlanc, A., J. Neurosci. 15:7837-46 (1995), incorporated herein by reference. Fresh brain tissues were dissociated with 0.25% trypsin (Gibco-BRL) in phosphate buffered saline (PBS) at 37° C. for 15 minutes. The trypsin was inactivated. by adding 10% decomplemented fetal bovine serum (FBS, HyClone, Logan, Utah.) to the mixture. The dissociated tissues were triturated in 0.1 mg/ml DNaseI (Gibco-BRL) to obtain a homogeneous mixture. The mixture was filtered successively through 130 and 70 gm filters and centrifuged at 15,000 g for 10 minutes at 10° C. to pellet the cells. The cell pellet was washed once with PBS and once with minimal essential media (MEM, Gibco-BRL) in Earle's balanced salt solution containing 0.225% sodium bicarbonate, 1 mM sodium pyruvate, 2 mM L-glutamine, 0.1% dextrose, 1×antibiotic Pen-Strep (all from Gibco-BRL) and 5% decomplemented FBS.
The cells were plated on poly-L-lysine-coated ACLARTM (Cat. No.: 33C; thickness: 0.5 mm; Allied Chemical, Minneapolis, Minn.) coverslips at a density of 3×10^6 cells/ml. Neurons and astrocytes were incubated at 37° C. in the MEM media with 5% CO2, and the media were changed every 48 hours. For neuron culture, 1 mM fluorodeoxyuridine (FDU, Gibco-BRL) was applied for the first 3 feedings and after that, used weekly to prevent proliferation of dividing cells. […] Microinjection or treatment was performed 10 days after plating for neurons and astrocytes.
Aβ peptides. Aβ peptides (Bachem, King of Prussia, Pa.) were dissolved in sterile distilled water at 25 μM and incubated at 37° C. for 5 days. The peptides stock solutions were frozen and diluted in 1×PBS immediately before microinjection. […] A 250 μl aliquot was diluted to 0.25 μM and immediately frozen at −20° C. in aliquots of 50 μl. The remaining solution was incubated at 37° C. in Eppendorf tubes with continuous mixing by inversion. After incubation, the samples were removed, vortexed, sonicated twice for 1 minute in a bath type sonicator (ELMA GmbH & Co. KG, Germany) and frozen at −20° C. in […]. Each aliquot was used once to avoid possible effects of freeze and thaw cycles.
(§2) Microinjection. Thin-walled Borosilicate glass capillaries (OD 1.0 mm, ID 0.5 mm) with microfilament (MTW1OOF-4, World Precision Instrument, Sarasota, Fla.) were pulled with a Flaming/Brown Micropipefte Puller (β-87, Sutter, Novato, Calif.) to obtain injection needles with a tip diameter of ˜0.5 μm. Microinjection was performed in the cytosol of each cell using the Eppendorf Microinjector 5246 (Hamburg, Germany) and Burleigh Micromanipulator MIS-5000 (Victor, N.Y.). Human neurons were injected with 25 pl/shot at an injection pressure of 100 hPa, a compensation pressure of 50 hPa, and an injection time of 0.1 s. Human astrocytes, M17, NT2 and La—N-1 cells were injected with 8 pl/shot at an injection pressure of 50 hPa, a compensation pressure of 30 hPa and an injection time of 0.1 s.
The diluted peptides were injected at the indicated concentrations with 100 μg/ml dextran Texas Red (DTR) (MW: 3000, Molecular Probes, Eugene, Oreg.) as a fluorescent marker to recognize the injected cells.
(§3) Measurement of neuronal apoptosis. Cells were fixed in freshly prepared 4% paraformaldehyde/4% sucrose for 20 minutes at room temperature and permeabilized in 0.1% Triton X-100, 0.1% sodium citrate on ice for 2 minutes. Terminal deoxynucleotidyl transferase-mediated dUTP nick end labeling (TUNEL) was performed using the In Situ Cell Death Detection Kit I as described by the manufacturer (Roche Molecular Biochemicals).

human neurons [1] = test: Exposure of human neurons to extracellular Aβ peptides, TUNEL and propidium iodide; type: cell-based; details: 10 μM extracellular, 24 hours
Experimental: To test if this particular batch of peptide might be neurotoxic, neurons were treated with 10 μM of peptides for 24 hours.

primary human astrocytes = test: Microinjection of Aβ1-42 into primary human astrocytes, TUNEL/Hoechst; type: cell-based; details: up to 100 nM / 8×10^−19 moles injected, 24 hours
Experimental: as §1, with “FBS. […]” for “FBS.”
Measurement of neuronal apoptosis. […] The percentage of cell death was determined as the ratio of the number of DTR-TLUNEL-double-positive cells over the total number of DIR-positive cells. […]
Cell death was identified by TUNEL staining and nuclei detected with Hoechst staining. […] The faint green fluorescence detected in these cells is the results of bleed-through from the red DTR fluorescence on the microscope.

[2] = system: human neuroblastoma La-N-1; test: Microinjection of Aβ1-42 into La-N-1 cells, TUNEL; type: cell-based; details: La-N-1, up to 8×10^−19 moles injected, 24 hours
Experimental: (§4) Human neuroblastoma M17 cells were cultured on ACLAR™ coverslips at 1×10^6 cells/ml in OPTI-MEM (Gibco-BRL) containing 5% FBS. Microinjection was performed when the cells reached 70-80% confluence on the coverslips. Human teratocarcinoma NT2 (Stratagene, La Jolla, Calif.) and neuroblastoma La-N-1 cells were cultured on ACLAR™ coverslips at 1×10^6 cells/ml in DMEM (Gibco-BRL) containing 10% FBS. Microinjection was performed when the cells were 50% confluent.
as §2, with “Human astrocytes, M17, NT2 and La—N-1 cells were injected with 8 pl/shot at an injection pressure of 50 hPa, a compensation pressure of 30 hPa and an injection time of 0.1 s.” left out
(§5) Measurement of neuronal apoptosis. […] The percentage of cell death was determined as the ratio of the number of DTR-TLUNEL-double-positive cells over the total number of DIR-positive cells.

human neuroblastoma M17 = test: Microinjection of Aβ1-42 into M17 cells, TUNEL; type: cell-based; details: M17, up to 8×10^−19 moles injected, 24 hours
Experimental: as §4
as §2, with “Human astrocytes, M17, NT2 and La—N-1 cells were injected with 8 pl/shot at an injection pressure of 50 hPa, a compensation pressure of 30 hPa and an injection time of 0.1 s.” left out
as §5

[3] = system: human teratocarcinoma NT2; test: Microinjection of Aβ1-42 into NT2 cells, TUNEL; type: cell-based; details: NT2, up to 8×10^−19 moles injected, 24 hours
Experimental: as §4
as §2, with “Human astrocytes, M17, NT2 and La—N-1 cells were injected with 8 pl/shot at an injection pressure of 50 hPa, a compensation pressure of 30 hPa and an injection time of 0.1 s.” left out
as §5

NIH 3T3 fibroblasts = test: Microinjection of Aβ1-42 into NIH 3T3 fibroblasts, TUNEL; type: cell-based, mice; details: 24 hours
[4] = system: baby hamster kidney (BHK) cell lines; test: Microinjection of Aβ1-42 into BHK cells, TUNEL; type: cell-based; details: 24 hours
[5] = determined in a medium or extracellularly; cited from earlier work
[6] = system: Aβ1-42-mediated neuronal cell death; test: Inhibition of Aβ1-42-mediated neuronal cell death in Aβ1-42-microinjected neurons, TUNEL; type: cell-based, human; details: 20 mM, 1 hour pre-incubation, 24 hours
Experimental: cDNA Clones. Human Bcl-2 cDNA, Bax α cDNA, and APP695 cDNA were cloned into pCep4β (Invitrogen Canada, Burlington, ON, Canada). The p53 wild type and p53R273H dominant negative cDNA may be cloned in the pCMV-NEO vector. These cDNAs were purified through GlassMAXTM (Gibco-BRL, Rockville, Mass.) and diluted at 30 ng/μl in PBS before injection.
Neutralizing Bax antibodies. Monoclonal anti-Bax 6A7 (amino acids 12-24: Pharmingen, San Diego, Calif.) and 2D2 (amino acids 3-16: Trevigen, Gaithersburg, Md.), polyclonal anti-Bax N-20 (Santa Cruz Biotechnology, Santa Cruz, Calif.), monoclonal anti-APP 22C11 (Roche Molecular Biochemicals, Laval, PQ, Canada), mouse IgG or rabbit sera were diluted at 50 μg/ml (for 6A7, 2D2, mouse IgG and 22C11) or 25 μg/ml (for polyclonal anti-Bax and rabbit sera) in PBS before use. A toxicity curve was done to determine this concentration as the highest non-toxic concentration that can be injected in neurons.
as §2
as §3, with “Biochemicals). The percentage of cell death was determined as the ratio of the number of DTR-TLUNEL-double-positive cells over the total number of DIR-positive cells.” for “Biochemicals).”
Treatment with caspase inhibitors, cycloheximide, actinomycin D. Caspase pan inhibitor, Z-Valine-Alanine-Aspartic acid-fluoromethylketone (Z-VAD-fmk) (Biomol, Plymounth Meeting, PA); caspase-6 inhibitor, Z-Valine-Glutamic acid-Isoleucine-Aspartic acid-fmk (Z-VEID-fnk); caspase-3 inhibitor, Z-Aspartic acid-Glutamic acid-Valine-Aspartic acid-fmk (Z-DEVD-fmk); and caspase-8 inhibitor, Z-Isoleucine-Glutamic acid-Threomine-Aspartic acid-fmk (Z-IETD-fmk) (Sigma, Oakville, ON, Canada) were dissolved in 100% dimethylsulphoxide (DMSO, Sigma) at 5 mM and were diluted at 5 μM into culture medium immediately before use. The medium was changed every 48 hours.
Stock solutions of 5 mg/ml cycloheximide and 200 IM actinomycin D were made in sterile distilled water and diluted to 5 μg/ml for cycloheximide and 5 μM for actinomycin D in the culture medium immediately before use.
Dextran Texas Red (DTR) was co-injected with Aβ1-42 to identi the injected cells from the non-injected cells. The experiment was done on 200 microinjected neurons per preparation of neurons and on three independent neuron preparations.

human neurons [7] = test: Neuronal cell death caused by the agent alone (without Aβ1-42); type: cell-based; details: 20 mM, DTR-injected neurons, 24 hours
Experimental: as §3

In the case of “Aβ1-42: 42 amino acid amyloid β peptide (SEQ ID NO: 2), aged 5 days at 37° C.”, the “cell death of microinjected neurons” value (primary human neurons; 10 nM aged peptide, 48 hours after injection) is reported as 78%, the “amount delivered into the neuron cytosol sufficient to induce rapid neuronal death” value (primary human neurons; 25 pl/shot of 10 nM) is reported as 2.5e-19 mol and the “apoptosis of microinjected neurons” value (primary human neurons; 25×10^−21 moles intracellular, within 24 hours after injection) is reported as 70%. For the same compound, the “cell death of microinjected neurons” value (primary human neurons; 100-fold dilution in the amount injected (25 pl/shot of 10 nM)) was 50%, the “number of molecules giving 50% toxicity” value (primary human neurons; based on the Avogadro number) was 1505.5 molecules/neuron and the “number of molecules injected giving maximal toxicity” value (primary human neurons; based on the Avogadro number) was 150,055 molecules. The “toxic concentration of injected peptide in the cytosol” value (primary human neurons; calculated from injected moles and cytosolic volume 2.5 nL) was 1 pM and 1 to 100 pM, the “number of molecules toxic (as few as / as little as)” value (primary human neurons) was 1500 molecules and the “number of molecules toxic (as few as / as little as)” value (primary human neurons; listed as Aβ42) was 150.5 molecules. The “intracellular toxicity to human neurons (in words)” value (primary human neurons; peptide microinjected into cytosol) was “rapidly induces cell death”, the “reduction of concentration that still exerts significant toxicity” value (primary human neurons; relative to 25×10^−21 moles/cell, FIG. 1C) was 100 to 1000 fold and the “toxicity of extracellular peptide (in words)” value (human neurons [1]) was “do not undergo cell death; also recorded: Neither extracellular Aβ1-40, Aβ1-42, or Aβ40-1 are toxic”. The “intracellular toxicity (in words)” value (primary human astrocytes) was “not observed to be toxic; also recorded: completely resist; also recorded: do not show any sign of condensed chromatin by Hoechst staining, nor positive nuclei TUNEL staining”, the “intracellular toxicity (in words)” value (primary human astrocytes; listed as Aβ42) was “remain resistant” and the “intracellular toxicity (in words)” value [2] was “not observed to be toxic; also recorded: completely resist; also recorded: fails to induce cell death”. For the same compound, the “intracellular toxicity (in words)” value ([2]; listed as Aβ42) was “remain resistant”, the “intracellular toxicity (in words)” value (human neuroblastoma M17) was “not observed to be toxic; also recorded: completely resist; also recorded: fails to induce cell death” and the “intracellular toxicity (in words)” value (human neuroblastoma M17; listed as Aβ42) was “remain resistant”. For the same compound, the “intracellular toxicity (in words)” value [3] was “not observed to be toxic; also recorded: completely resist; also recorded: fails to induce cell death”, the “intracellular toxicity (in words)” value ([3]; listed as Aβ42) was “remain resistant” and the “intracellular toxicity (in words)” value (NIH 3T3 fibroblasts) was “not observed to be toxic; also recorded: fails to induce cell death”. For the same compound, the “intracellular toxicity (in words)” value [4] was “not observed to be toxic; also recorded: fails to induce cell death” and the “toxic concentration known in the art” value [5] was 10 to 100 µM.

In the case of `[Cl-].[Li+]` [LiCl2], the “protection against intracellular Aβ1-42 toxicity (in words)” value [6] is reported as “efficiently protected” and the “cell death with agent and DTR only (in words)” value (human neurons [7]) is reported as “did not undergo cell death”.
